Consider 1 compound from PMC3138742 (PLoS ONE, 2011).

In one data set the test system is NCI-H1975 cells. Nature of the data set: Cell proliferation SRB assay. It is filed as cell-based, human. As to conditions: NCI-H1975 cells (EGFR T790M/L858R). As for the experimental part: Cell viability was determined using sulforhodamine B assay. IC50 values were determined based on the results of three independent experiments. […] Whole-cell lysates were assayed for total EGFR and phosphorylation of EGFR by immunoblotting. A representative anti-GAPDH immunoblot is shown as a loading control. […] Cell viability was determined using sulforhodamine B assay.
Cell proliferation was evaluated using the SRB (Sulforhodamine B) assay as previously described. Briefly, cells were seeded into 96-well plates and grown for 24 h. […] The medium remained unchanged until the completion of the experiment. The cells were then fixed with 10% precooled trichloroacetic acid (TCA) for 1 h at 4°C and stained for 15 min at room temperature with 100 μL of 4 mg/mL SRB solution (Sigma) in 1% acetic acid. The SRB was then removed, and the cells were quickly rinsed five times with 1% acetic acid. After cells were air-dried, protein-bound dye was dissolved in 150 μL of 10 mmol/L Tris base for 5 min and measured at 515 nm using a multiwell spectrophotometer (VERSAmax, Molecular Devices). […] The IC50 value was obtained by the Logit method and was determined from the results of at least 3 independent tests.
Background: In SRB staining, fixed cells bind dye roughly in proportion to their protein.

For data set [1], the system named is EGFR phosphorylation in A549 cells. Kind of data set: Western blot of EGF-induced EGFR phosphorylation. It is filed as cell-based, human. The following applies: 0.01 µM, 4 h, EGF 50 ng/ml 15 min. For orientation: A western blot detects proteins with antibodies after separation by electrophoresis.
For a further data set, the system named is A549 cells. Kind of data set: Cell proliferation SRB assay. It is filed as cell-based. As to conditions: Homo sapiens, A549, 72 h, range given for four cell lines together, read-out: IC50 (antiproliferative).
Another data set deals with SK-OV-3 cells. Kind of data set: Anchorage-independent growth on soft agar. It is filed as cell-based, human. The following applies: two weeks. On the procedure:
The culture was maintained at 37°C in a 5% CO2 atmosphere for two weeks. The average colony number was calculated and colonies were photographed. Columns, mean of triplicate samples; bars, SE. Significant differences were evaluated using the Student's test (*P<0.05; ** P<0.01). (TIF) Click here for additional data file. Anchorage-independent cell transformation assay. Cell transformation was detected in SK-OV-3 and A549 cells, respectively. […] The culture were maintained in a 37°C, 5% CO2 incubator for 1-2 weeks, and the cell colonies were scored using a microscope and the Image-Pro PLUS computer software program (Media Cybernetics, Silver Spring, MD). Data are shown as means ± SD of values from triplicate experiments and the asterisk (*) indicates a significant (*P<0.05, ** P<0.01) decrease in colony number compared to untreated control.

In data set [2] the test system is SK-OV-3 cells transfected with EGFR siRNA. Nature of the data set: SRB assay after EGFR siRNA transfection. It is filed as cell-based, human. The following applies: SK-OV-3, two independent pairs of EGFR siRNAs. From the text:
Small interfering RNA (siRNA) against EGFR or ErbB2, as well as control siRNA, were designed and synthesized by Shanghai GenePharma Co. Ltd. One pair of ErbB2 siRNA (sequence: 5′ […] 3′), and two pairs of EGFR siRNA (#1 sequence: 5′ […] 3′; #2 sequence: 5′ […] 3′) were applied in this study. Different kind of siRNA (final concentration: 50 nmol/L) was transfected to SK-OV-3 cells with oligofectamine reagent (Invitrogen) according to the manufacturer's instruction.

A further data set has as its system A549 xenograft. Nature of the data set: Human tumor xenograft model, tumor growth. It is filed as in vivo. The following applies: nude mice, p.o. twice daily. As for the experimental part:
(§1) The mice were housed and maintained under specific-pathogen free (SPF) conditions. All animal procedures were performed according to the protocol approved by the Institutional Animal Care and Use Committee at Shanghai Institute of Materia Medica, Chinese Academy of Sciences (SIMM-AE-DJ-2010-01). Under sterile conditions, well-developed tumors were cut into 1-mm^3 fragments and transplanted s.c. into the right flank of nude mice using a trocar. When the tumor reached a volume reached 100 to 200 mm^3, the mice were randomly assigned into control and treatment groups. […] The sizes of the tumors were measured twice per week using microcalipers. The tumor volume (V) was calculated as follows: V = (length×width^2)/2. The body weights of the mice were observed simultaneously.
On the technique in general: A xenograft is tissue or cells of one species grown in another, often human tumour cells in immunodeficient mice.

For the next data set, the system named is Calu-3 xenograft. Nature of the data set: Human tumor xenograft model, tumor growth. It is filed as in vivo. As to conditions: nude mice, p.o. twice daily. On the procedure:
as §1

Another data set deals with HO-8910 xenograft. Kind of data set: Human tumor xenograft model, tumor growth. It is filed as in vivo. As to conditions: nude mice, p.o. twice daily. On the procedure:
as §1

The next data set relates to SK-OV-3 xenograft. Kind of data set: Human tumor xenograft model, tumor growth. It is filed as in vivo. As to conditions: nude mice, p.o. twice daily. On the procedure:
as §1

For data set [3], the system named is FVB-2/N^neu transgenic mouse model. Nature of the data set: Spontaneous breast cancer in FVB-2/N^neu transgenic mouse, tumor growth. It is filed as in vivo. The following applies: FVB-2/N^neu mice. An excerpt:
Thirty eight- to forty four-week-old female FVB/N^neu mice were obtained from Shanghai Laboratory Animal Center. The animals were housed under specific pathogen-free conditions.

The nature of data set [4]: Pharmacokinetics after single oral dose. As to conditions: dog, in vivo; dogs, single oral dose 90 mg/kg; unpublished data.
A further data set has as its target EGFR (Homo sapiens, UniProt P00533). Nature of the data set: Rapid dilution irreversibility experiment. It is filed as biochemical. On the set-up: The kinase domain of EGFR, ErbB-2, IGF1R, VEGFR2, FGFR1, PDGFRα, c-Src, c-Met, RON, c-Kit, EphA2 and EphB2 were expressed; made in house. The following applies: preincubated 30 min at 100-fold IC50, diluted 100-fold, sampled 180 minutes. As for the experimental part: (§2) The microplate was placed in the EZ Reader (Caliper Life Sciences, MA) and wells were repeatedly sampled for 180 minutes.
(§3) To verify this, we determined the reversibility of EGFR and ErbB2 binding using a dilution method. […] After incubating, the enzyme/inhibitor mixture is diluted 100-fold (i.e., to normal reaction conditions), reaction buffer plus ATP and substrate are added, and receptor kinase activity is measured continuously. In general, a reversible inhibitor dissociates quickly, allowing immediate recovery of enzymatic activity, whereas a slowly reversible inhibitor allows a gradual increase in activity. In contrast, an irreversible inhibitor prevents recovery of enzymatic activity.

The target of the next data set is ErbB2 (Homo sapiens, UniProt P04626). Nature of the data set: Rapid dilution irreversibility experiment. It is filed as biochemical. More on the design: The kinase domain of EGFR, ErbB-2, IGF1R, VEGFR2, FGFR1, PDGFRα, c-Src, c-Met, RON, c-Kit, EphA2 and EphB2 were expressed; made in house. As to conditions: preincubated 30 min at 100-fold IC50, diluted 100-fold, sampled 180 minutes. As for the experimental part:
as §2, §3

Entries after “also recorded” stand apart in the source; their conditions may differ. A value given as a limit tells only on which side of the number the result lay.

Sequence of ErbB2 (P04626 720-987 limits assumed): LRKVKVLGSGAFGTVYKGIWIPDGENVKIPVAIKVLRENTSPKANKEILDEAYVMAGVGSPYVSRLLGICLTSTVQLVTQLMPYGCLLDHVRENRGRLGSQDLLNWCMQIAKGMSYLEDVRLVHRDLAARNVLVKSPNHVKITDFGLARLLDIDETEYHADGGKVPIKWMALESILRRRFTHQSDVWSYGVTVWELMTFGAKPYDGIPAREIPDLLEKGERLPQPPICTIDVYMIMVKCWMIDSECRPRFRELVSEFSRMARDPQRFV
Sequence of EGFR (P00533 712-979 limits assumed): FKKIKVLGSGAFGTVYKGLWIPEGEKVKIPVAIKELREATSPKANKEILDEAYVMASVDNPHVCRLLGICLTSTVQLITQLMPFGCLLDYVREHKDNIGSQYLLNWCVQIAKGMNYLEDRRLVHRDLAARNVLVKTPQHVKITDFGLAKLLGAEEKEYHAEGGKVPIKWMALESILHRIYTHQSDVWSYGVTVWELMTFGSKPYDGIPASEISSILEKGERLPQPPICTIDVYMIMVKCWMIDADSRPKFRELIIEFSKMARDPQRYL

In the case of `C=CC(=O)Nc1ccc2ncnc(Nc3ccc(OCc4cccc(F)c4)c(Cl)c3)c2c1` [AST1306], the “inhibition of cell growth” value with NCI-H1975 cells is given as “inhibited the growth”. Moreover, in data set [1], the “EGF-induced EGFR phosphorylation (phospho-EGFR bands)” value is listed as “almost disappeared”. The IC50 with A549 cells lay within 6.2 to 7.5 µM. Also, the “anchorage-independent growth on soft agar” value with SK-OV-3 cells is on record as “dramatically inhibit the growth”. Further, in data set [2], the “antiproliferative activity after EGFR knockdown” value is reported as “did not significantly affect”. Also, the tumor growth result in the data set with A549 xenograft was “only slightly suppressed tumor growth”; in the data set with Calu-3 xenograft, “dramatic suppression of tumor growth”; in the data set with HO-8910 xenograft, “only slightly suppressed tumor growth”; in the data set on SK-OV-3 xenograft, “dramatic suppression of tumor growth; also recorded: more efficacious than lapatinib”; in [3] (oral twice daily for 3 wk), “dramatic suppression of tumor growth”. The “tumors after treatment for 7 d” value with SK-OV-3 xenograft (7 d) is reported as “tumors almost completely disappeared”. Also, the “tumors after treatment for 11 d” value in data set [3] (oral twice daily, 11 d) is recorded as “tumors almost completely disappeared”. The half-life in [4] was less than 2.3 h. The “recovery of EGFR enzymatic activity after dilution” value on EGFR is on record as “virtually no EGFR or ErbB2 activity was recovered”. In addition, on ErbB2, the “recovery of ErbB2 enzymatic activity after dilution” value is “virtually no EGFR or ErbB2 activity was recovered”.

In general, IC50 refers to the midpoint of a concentration-inhibition curve. The half-life is the time needed for the level to fall by half in the phase considered. A higher half-life goes with slow loss.
